# Values of other authors, collected in US7786168B2, “Phenolic acid salts of gabapentin in solid dosage forms and methods of use” (Kiel Laboratories, Inc., priority 2003, dated 2010).
# Columns and labels:
# [1] = molecular target: gb1a-gb^2 heterodimer and post-synaptic GABAB receptor (Homo sapiens, UniProt Q9UBS5)
# [2] = in water and across a wide range of pH
# gb1a-gb^2 heterodimer and post-synaptic GABAB receptor, sequence (Q9UBS5 15-961 limits assumed): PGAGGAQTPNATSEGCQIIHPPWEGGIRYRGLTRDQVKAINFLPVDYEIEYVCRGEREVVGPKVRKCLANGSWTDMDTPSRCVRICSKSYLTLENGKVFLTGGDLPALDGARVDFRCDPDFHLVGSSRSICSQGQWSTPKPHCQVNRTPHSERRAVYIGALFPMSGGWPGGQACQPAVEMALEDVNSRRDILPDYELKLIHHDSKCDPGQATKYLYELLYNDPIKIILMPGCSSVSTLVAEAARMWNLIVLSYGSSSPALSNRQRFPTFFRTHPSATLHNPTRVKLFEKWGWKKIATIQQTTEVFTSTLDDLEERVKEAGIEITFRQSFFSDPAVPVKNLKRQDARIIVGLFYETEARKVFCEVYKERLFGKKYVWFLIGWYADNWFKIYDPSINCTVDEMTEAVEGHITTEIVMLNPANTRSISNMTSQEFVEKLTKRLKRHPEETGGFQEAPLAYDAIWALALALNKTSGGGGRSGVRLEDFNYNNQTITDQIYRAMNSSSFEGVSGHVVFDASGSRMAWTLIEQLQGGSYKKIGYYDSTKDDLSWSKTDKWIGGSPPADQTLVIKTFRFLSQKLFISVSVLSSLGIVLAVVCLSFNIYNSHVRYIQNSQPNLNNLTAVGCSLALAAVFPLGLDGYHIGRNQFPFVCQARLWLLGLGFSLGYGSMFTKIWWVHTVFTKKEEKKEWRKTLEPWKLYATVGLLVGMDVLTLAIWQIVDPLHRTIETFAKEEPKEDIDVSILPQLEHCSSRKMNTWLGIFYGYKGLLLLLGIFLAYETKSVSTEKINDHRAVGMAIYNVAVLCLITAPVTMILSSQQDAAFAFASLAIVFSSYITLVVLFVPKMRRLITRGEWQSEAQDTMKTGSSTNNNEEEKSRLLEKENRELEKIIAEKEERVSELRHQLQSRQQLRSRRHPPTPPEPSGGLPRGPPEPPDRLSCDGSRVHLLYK
# gb1a-gb^2 heterodimer and post-synaptic GABAB receptor, sequence (O75899 42-941 partner): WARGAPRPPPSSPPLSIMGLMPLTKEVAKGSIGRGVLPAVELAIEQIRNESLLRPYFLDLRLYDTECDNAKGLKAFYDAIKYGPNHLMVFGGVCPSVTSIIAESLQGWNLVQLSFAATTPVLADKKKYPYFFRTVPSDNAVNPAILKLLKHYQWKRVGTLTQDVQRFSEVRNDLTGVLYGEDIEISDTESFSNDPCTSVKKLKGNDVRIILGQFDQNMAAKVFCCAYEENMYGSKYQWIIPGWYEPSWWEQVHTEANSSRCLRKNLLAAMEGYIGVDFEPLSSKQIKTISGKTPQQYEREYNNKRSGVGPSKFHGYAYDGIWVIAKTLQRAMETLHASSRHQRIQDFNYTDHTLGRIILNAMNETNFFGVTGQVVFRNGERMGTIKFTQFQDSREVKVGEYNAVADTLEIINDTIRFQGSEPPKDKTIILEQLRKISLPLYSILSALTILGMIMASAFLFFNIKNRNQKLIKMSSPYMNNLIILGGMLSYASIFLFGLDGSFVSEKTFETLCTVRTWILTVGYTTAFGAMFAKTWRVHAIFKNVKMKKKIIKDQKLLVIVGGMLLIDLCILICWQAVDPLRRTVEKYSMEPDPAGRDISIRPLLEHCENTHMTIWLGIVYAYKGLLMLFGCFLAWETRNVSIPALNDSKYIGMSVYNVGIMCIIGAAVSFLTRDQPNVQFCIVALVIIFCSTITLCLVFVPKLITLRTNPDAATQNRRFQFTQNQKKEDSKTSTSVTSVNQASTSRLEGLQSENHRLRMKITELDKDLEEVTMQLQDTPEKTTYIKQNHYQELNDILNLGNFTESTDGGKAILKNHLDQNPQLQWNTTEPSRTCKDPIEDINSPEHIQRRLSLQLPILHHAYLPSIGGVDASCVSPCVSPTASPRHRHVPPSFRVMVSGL
smiles,measurement,setting,value
"NCC1(CC(=O)O)CCCCC1 [gabapentin, 1-(aminomethyl) cyclohexaneacetic acid]",agonist activity,[1],selective agonist
same,time of peak plasma gabapentin concentrations,"adults, post-dose",2 to 3 h
same,absolute bioavailability,"after administration of 300 mg, dose-dependent",approximately 60%
same,metabolism,in vivo,not metabolized
same,route of elimination,in vivo,eliminated via glomerular filtration
same,crossing of the blood-brain barrier,unlike GABA,able to cross the blood-brain barrier
same,solubility,[2],freely soluble
same,plasma protein binding,plasma proteins,does not bind to plasma proteins
